The target of the test is T1, human MC5R (hMC5R) (Homo sapiens, UniProt P33032).
T1 construct: purchased Perkin Elmer RBXMC5M400UA
As to the kind of experiment: Human MC5R radioligand binding assay ([125I] NDP-MSH displacement). The settings on record: hMC5R membranes, [125I] NDP-MSH; tested as trifluoroacetate or hydrochloride salts or free bases; read-out: MC5R radioligand IC50. As to the method:
Assessments of compound binding to human MC5R (hMC5R) by displacement of an ^125I-labeled NDP-MSH receptor ligand peptide were performed essentially as described in the data sheets produced by Perkin Elmer to accompany their frozen hMC5R membranes (Perkin Elmer catalog number RBXMC5M400UA).
Na^125I (0.5 mCi, 17.4 Ci/mg) was added to 50 μL sodium phosphate (50 mM, pH 7.4) in an eppendorf tube precoated with IODOGEN. After incubation for 10 mins the phosphate buffer containing the iodine was added to NDP-MSH (10 ul at 1 mg/mL) in a separate eppendorf tube. This was incubated for a further 10 mins. The iodinated NDP-MSH was purified by HPLC on a Zorbax SB 300 column using solvent A: 0.05% TFA and solvent B: 90% acetonitrile 0.045% TFA with a linear gradient, 0-67% B over 60 mins. The ^125I NDP-MSH eluted at 52 min after the unlabeled starting material (48 min) and was counted and stored in the freezer.
Incubation buffer: 25 mM HEPES-KOH (pH 7.0), 1.5 mM CaCl2, 1 mM MgSO4, 0.1 M NaCl, 1 mM 1,10-phenanthroline, and 1 Complete™ protease inhibitor tablet/100 mL (Roche, catalog number 1873580)
Perkin Elmer frozen hMC5 membranes: catalog number RBXMC5M400UA, 0.4 mL/vial; 400 microassays/vial. 0.78 mg/mL protein concentration
Vials of frozen membranes were thawed rapidly immediately before use, diluted with binding buffer and vortexed. Resuspended membranes were kept on ice until they were added to the wells of the plate.
Assays were performed in 96 well polypropylene plates. […] This was incubated for 1 hr at 37° C. […] Non-specific binding just under 5%.
Representative compounds of the present invention were tested for binding in the hMC5R assay as in Example 46, as listed in Table 3. The compounds were tested as their trifluoroacetate or hydrochloride salts, or as their free bases.

The values that follow come from patent US8440653B2, “3-substituted-1,4-diazepan-2-one melanocortin-5 receptor antagonists” (Mimetica Pty Ltd, priority 2008, dated 2013).

The structures appear in SMILES notation.

A word on the IC50: it is the concentration that gives 50% inhibition.

T1 sequence (P33032 whole entry): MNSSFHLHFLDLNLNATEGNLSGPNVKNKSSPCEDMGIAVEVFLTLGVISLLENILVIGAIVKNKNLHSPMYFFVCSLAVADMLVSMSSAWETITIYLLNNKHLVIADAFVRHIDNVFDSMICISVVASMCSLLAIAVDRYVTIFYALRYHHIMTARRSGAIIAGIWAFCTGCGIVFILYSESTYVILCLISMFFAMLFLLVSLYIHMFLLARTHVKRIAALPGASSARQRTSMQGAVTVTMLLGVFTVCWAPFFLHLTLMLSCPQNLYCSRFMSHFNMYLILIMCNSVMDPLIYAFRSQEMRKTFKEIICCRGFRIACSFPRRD

`CC[C@H](CN1CC[C@@H](CNC(=O)c2ccc3cc(Cl)ccc3c2)N[C@@H](CCOCc2ccccc2)C1=O)c1ccccc1` [Compound 78, N-(((3S,5S)-3-(2-(benzyloxy)ethyl)-2-oxo-1-((S)-2-phenylbutyl)-1,4-diazepan-5-yl)methyl)-6-chloro-2-naphthamide]: the IC50 is less than 10 µM. With `O=C(/C=C/c1ccc(Cl)cc1)NC[C@@H]1CCN(CC(c2ccccc2)c2ccccc2)C(=O)[C@H](Cc2c[nH]cn2)N1` [Compound 63, (E)-N-(((3S,5S)-3-((1H-imidazol-4-yl)methyl)-1-(2,2-diphenylethyl)-2-oxo-1,4-diazepan-5-yl)methyl)-3-(4-chlorophenyl)acrylamide] the figure was less than 10 µM; with `O=C(NC[C@@H]1CCN(CC(c2ccccc2)c2ccccc2)C(=O)[C@H](CC2CCCCC2)N1)c1ccc2ccccc2c1` [Compound 53, N-(((3S,5S)-3-(cyclohexylmethyl)-1-(2,2-diphenylethyl)-2-oxo-1,4-diazepan-5-yl)methyl)-2-naphthamide], less than 1 µM.

With `Nc1ccccc1C[C@@H]1N[C@H](CNC(=O)/C=C/c2ccc(Cl)cc2)CCN(CC(c2ccccc2)c2ccccc2)C1=O` [Compound 68], the IC50 was less than 1 µM.

Take `O=C(/C=C/c1ccc(Cl)cc1)NC[C@@H]1CCN(CC(c2ccccc2)c2ccccc2)C(=O)[C@H](Cc2ccccn2)N1` [Compound 45, (E)-3-(4-chlorophenyl)-N-(((3S,5S)-1-(2,2-diphenylethyl)-2-oxo-3-(pyridin-2-ylmethyl)-1,4-diazepan-5-yl)methyl)acrylamide]: the IC50 was less than 10 µM.

For the compound `CCCC[C@@H]1N[C@H](CNC(=O)c2ccc3cc(Cl)ccc3c2)CCN(C[C@@H](CC)c2ccccc2)C1=O` [Compound 70, N-(((3S,5S)-3-butyl-2-oxo-1-((S)-2-phenylbutyl)-1,4-diazepan-5-yl)methyl)-6-chloro-2-naphthamide], the concentration for half-maximal inhibition (IC50) was less than 1 µM. With `CCCCN(C)C(=O)CC[C@@H]1N[C@H](CNC(=O)c2ccc3ccccc3c2)CCN(C[C@@H](CC)c2ccccc2)C1=O` [Compound 72, N-(((3S,5S)-3-(3-(butyl(methyl)amino)-3-oxopropyl)-2-oxo-1-((S)-2-phenylbutyl)-1,4-diazepan-5-yl)methyl)-2-naphthamide] the figure was less than 1 µM; with `CC[C@H](CN1CC[C@@H](CNC(=O)c2ccc(Cl)c(Cl)c2)N[C@@H](CCO)C1=O)c1ccccc1` [Compound 80, 3,4-dichloro-N-(((3S,5S)-3-(2-hydroxyethyl)-2-oxo-1-((S)-2-phenylbutyl)-1,4-diazepan-5-yl)methyl)benzamide], less than 10 µM. With `O=C(/C=C/c1ccc(Cl)cc1)NC[C@@H]1CCN(CC(c2ccccc2)c2ccccc2)C(=O)[C@H](CC(=O)N2CCCCC2)N1` [Compound 65, (E)-3-(4-chlorophenyl)-N-(((3S,5S)-1-(2,2-diphenylethyl)-2-oxo-3-(2-oxo-2-(piperidin-1-yl)ethyl)-1,4-diazepan-5-yl)methyl)acrylamide] the figure was less than 1 µM; with `CCCC[C@@H]1N[C@H](CNC(=O)c2ccc3ccccc3c2)CCN(CC(c2ccccc2)c2ccccc2)C1=O` [Compound 49, N-(((3S,5S)-3-butyl-1-(2,2-diphenylethyl)-2-oxo-1,4-diazepan-5-yl)methyl)-2-naphthamide], less than 1 µM.

For the compound `O=C(NC[C@@H]1CCN(CC(c2ccccc2)c2ccccc2)C(=O)[C@H](Cc2ccccc2)N1)c1ccc2ccccc2c1` [Compound 61, N-(((3S,5S)-3-benzyl-1-(2,2-diphenylethyl)-2-oxo-1,4-diazepan-5-yl)methyl)-2-naphthamide], the IC50 was less than 1 µM. With `O=C(NC[C@@H]1CCN(CC(c2ccccc2)c2ccccc2)C(=O)[C@H](Cc2ccccc2N2CCCCC2)N1)c1ccc2ccccc2c1` [Compound 71, N-(((3S,5S)-1-(2,2-diphenylethyl)-2-oxo-3-(2-(piperidin-1-yl)benzyl)-1,4-diazepan-5-yl)methyl)-2-naphthamide] the figure was less than 10 µM.

For `CC[C@H](CN1CC[C@@H](CNC(=O)c2ccc3cc(Cl)ccc3c2)N[C@@H](CCC2CCCCC2)C1=O)c1ccccc1` [Compound 74, 6-chloro-N-(((3S,5S)-3-(2-cyclohexylethyl)-2-oxo-1-((S)-2-phenylbutyl)-1,4-diazepan-5-yl)methyl)-2-naphthamide], the IC50 is less than 10 µM.

For `CC[C@H](CN1CC[C@@H](CNC(=O)c2ccc3cc(Cl)ccc3c2)N[C@@H](CC(C)C)C1=O)c1ccccc1` [Compound 79, 6-chloro-N-(((3S,5S)-3-isobutyl-2-oxo-1-((S)-2-phenylbutyl)-1,4-diazepan-5-yl)methyl)-2-naphthamide], the IC50 is less than 10 µM. As for `O=C(NC[C@@H]1CCN(CC(c2ccccc2)c2ccccc2)C(=O)[C@H](Cc2cccnc2)N1)c1ccc2ccccc2c1` [Compound 47, N-(((3S,5S)-1-(2,2-diphenylethyl)-2-oxo-3-(pyridin-3-ylmethyl)-1,4-diazepan-5-yl)methyl)-2-naphthamide], the IC50 was less than 1 µM. With `O=C(/C=C/c1ccc(Cl)cc1)NC[C@@H]1CCN(CC(c2ccccc2)c2ccccc2)C(=O)[C@H](CC(=O)Nc2ccccn2)N1` [Compound 64, (E)-3-(4-chlorophenyl)-N-(((3S,5S)-1-(2,2-diphenylethyl)-2-oxo-3-(2-oxo-2-(pyridin-2-ylamino)ethyl)-1,4-diazepan-5-yl)methyl)acrylamide] the figure was less than 1 µM.

For the compound `O=C(NC[C@@H]1CCN(CC(c2ccccc2)c2ccccc2)C(=O)[C@H](CCC2CCCCC2)N1)c1ccc2ccccc2c1` [Compound 59, N-(((3S,5S)-3-(2-cyclohexylethyl)-1-(2,2-diphenylethyl)-2-oxo-1,4-diazepan-5-yl)methyl)-2-naphthamide], the IC50 was less than 1 µM. For the compound `CCCCCC[C@@H]1N[C@H](CNC(=O)c2ccc3cc(Cl)ccc3c2)CCN(C[C@@H](CC)c2ccccc2)C1=O` [Compound 75, 6-chloro-N-(((3S,5S)-3-hexyl-2-oxo-1-((S)-2-phenylbutyl)-1,4-diazepan-5-yl)methyl)-2-naphthamide], the IC50 is less than 0.1 µM.

Turning to `Nc1ccccc1C[C@@H]1N[C@H](CNC(=O)c2ccc3ccccc3c2)CCN(CC(c2ccccc2)c2ccccc2)C1=O` [Compound 69, N-(((3S,5S)-3-(2-aminobenzyl)-1-(2,2-diphenylethyl)-2-oxo-1,4-diazepan-5-yl)methyl)-2-naphthamide], the IC50 was less than 1 µM. Under `N=C(N)NOCC[C@@H]1N[C@H](CNC(=O)c2ccc3ccccc3c2)CCN(CC(c2ccccc2)c2ccccc2)C1=O` [Compound 46, N-(((3S,5S)-1-(2,2-diphenylethyl)-3-(2-(guanidinooxy)ethyl)-2-oxo-1,4-diazepan-5-yl)methyl)-2-naphthamide] stands less than 1 µM; under `O=C(NC[C@@H]1CCN(CC(c2ccccc2)c2ccccc2)C(=O)[C@H](CCc2ccccc2)N1)c1ccc2ccccc2c1` [Compound 57, N-(((3S,5S)-1-(2,2-diphenylethyl)-2-oxo-3-phenethyl-1,4-diazepan-5-yl)methyl)-2-naphthamide], less than 1 µM; under `CC[C@H](CN1CC[C@@H](CNC(=O)c2ccc3cc(Cl)ccc3c2)N[C@@H](CCCCO)C1=O)c1ccccc1` [Compound 76, 6-chloro-N-(((3S,5S)-3-(4-hydroxybutyl)-2-oxo-1-((S)-2-phenylbutyl)-1,4-diazepan-5-yl)methyl)-2-naphthamide], less than 0.1 µM. Under `CC[C@H](CN1CC[C@@H](CNC(=O)c2ccc3cc(Cl)ccc3c2)N[C@@H](CCOC)C1=O)c1ccccc1` [Compound 77, 6-chloro-N-(((3S,5S)-3-(2-methoxyethyl)-2-oxo-1-((S)-2-phenylbutyl)-1,4-diazepan-5-yl)methyl)-2-naphthamide] stands less than 0.1 µM; under `O=C(NC[C@@H]1CCN(CC(c2ccccc2)c2ccccc2)C(=O)[C@H](CCC(=O)N2CCCCC2)N1)c1ccc2ccccc2c1` [Compound 55, N-(((3S,5S)-1-(2,2-diphenylethyl)-2-oxo-3-(3-oxo-3-(piperidin-1-yl)propyl)-1,4-diazepan-5-yl)methyl)-2-naphthamide], less than 1 µM.

In the case of `CC[C@H](CN1CC[C@@H](CNC(=O)c2ccc3ccccc3c2)N[C@@H](CCC(=O)NC2CCCCC2)C1=O)c1ccccc1` [Compound 73, N-(((3S,5S)-3-(3-(cyclohexylamino)-3-oxopropyl)-2-oxo-1-((S)-2-phenylbutyl)-1,4-diazepan-5-yl)methyl)-2-naphthamide], the IC50 was less than 1 µM. With `CC[C@H](CN1CC[C@@H](CNC(=O)c2ccc(Cl)c(Cl)c2)N[C@@H](CCC(=O)N2CCCCC2)C1=O)c1ccccc1` [Compound 67, 3,4-dichloro-N-(((3S,5S)-2-oxo-3-(3-oxo-3-(piperidin-1-yl)propyl)-1-((S)-2-phenylbutyl)-1,4-diazepan-5-yl)methyl)benzamide] the figure was less than 10 µM.
